From article PMC8780828 (Viruses, 2021)
Where two headings read alike, the source gives them in different places.

Tests used:
[1] = test system: pseudovirus NL4-3ΔEnv-NanoLuc/SARS-CoV-2; assay: organism not typed; type: cell-based; details: HT-1080; n=3
[2] = test system: pseudovirus NL4-3ΔEnv-NanoLuc/SARS-CoV; assay: microbe, parasite or virus in culture; type: cell-based; details: Severe acute respiratory syndrome coronavirus, HT-1080; n=3; read-out: IC50
[3] = test system: pseudovirus NL4-3ΔEnv-NanoLuc/SARS-CoV; assay: microbe, parasite or virus in culture; type: cell-based; details: Severe acute respiratory syndrome coronavirus, A549-ACE2; n=3; read-out: IC50
[4] = test system: pseudovirus NL4-3ΔEnv-NanoLuc/MERS-CoV; assay: microbe, parasite or virus in culture; type: cell-based; details: Middle East respiratory syndrome-related coronavirus, Huh-7; n=3; read-out: IC50
[5] = test system: pseudovirus NL4-3ΔEnv-NanoLuc/MERS-CoV; assay: microbe, parasite or virus in culture; type: cell-based; details: Middle East respiratory syndrome-related coronavirus, MRC5; n=3; read-out: IC50
[6] = test system: control pseudovirus NL4-3.Luc.R-E-/A-MLV; assay: Control pseudovirus A-MLV assay in 293T/ACE2 cells; type: cell-based, amphotropic murine leukemia virus (A-MLV); details: NL43, 293T/ACE2
[7] = test system: NL4-3ΔEnv-NanoLuc/SARS-CoV-2; assay: organism not typed; type: cell-based
[8] = target: SARS-CoV-2 spike S1 subunit protein (Severe acute respiratory syndrome coronavirus 2, UniProt P0DTC2); type: binding
[9] = test system: pseudovirus NL4-3ΔEnv-NanoLuc/SARS-CoV-2; assay: SARS-CoV-2 pseudovirus assay with pre-treated 293T/ACE2 cells; type: cell-based; details: 293T/ACE2 cells pre-treated with compound 30 min before infection
β-lactamase = type: biochemical
Trypsin = type: biochemical
[10] = target: malate dehydrogenase (MDH); type: biochemical
pseudovirus SARS-CoV-2 = assay: organism not typed; type: cell-based
CYP3A [11] = target: T1, CYP3A (Homo sapiens, UniProt P08684); details: n=1
T1 sequence (P08684 2-503): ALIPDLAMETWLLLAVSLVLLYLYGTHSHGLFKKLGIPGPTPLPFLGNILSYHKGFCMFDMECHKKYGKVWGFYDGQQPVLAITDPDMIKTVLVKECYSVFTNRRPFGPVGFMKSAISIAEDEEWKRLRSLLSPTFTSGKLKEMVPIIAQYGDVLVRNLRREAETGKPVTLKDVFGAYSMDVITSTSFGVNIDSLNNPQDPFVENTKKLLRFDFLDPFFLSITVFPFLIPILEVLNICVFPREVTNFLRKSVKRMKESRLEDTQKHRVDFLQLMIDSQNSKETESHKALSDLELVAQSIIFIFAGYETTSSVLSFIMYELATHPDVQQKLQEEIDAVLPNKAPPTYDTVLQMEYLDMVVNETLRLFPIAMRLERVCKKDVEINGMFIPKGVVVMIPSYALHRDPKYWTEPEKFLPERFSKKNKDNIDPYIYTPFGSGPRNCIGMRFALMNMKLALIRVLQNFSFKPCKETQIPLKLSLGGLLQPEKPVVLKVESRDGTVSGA

[12] = rat, in vivo
P-gp = assay: in vitro; details: human
in vitro [13] = details: both, human, microsomes, pH 7.4
in vitro [14] = details: both, human, plasma
CYP1A2 [15] = target: T2, CYP1A2 (Homo sapiens, UniProt P05177); assay: in vitro; details: microsomes, pH 7.4
T2 sequence (P05177 whole entry): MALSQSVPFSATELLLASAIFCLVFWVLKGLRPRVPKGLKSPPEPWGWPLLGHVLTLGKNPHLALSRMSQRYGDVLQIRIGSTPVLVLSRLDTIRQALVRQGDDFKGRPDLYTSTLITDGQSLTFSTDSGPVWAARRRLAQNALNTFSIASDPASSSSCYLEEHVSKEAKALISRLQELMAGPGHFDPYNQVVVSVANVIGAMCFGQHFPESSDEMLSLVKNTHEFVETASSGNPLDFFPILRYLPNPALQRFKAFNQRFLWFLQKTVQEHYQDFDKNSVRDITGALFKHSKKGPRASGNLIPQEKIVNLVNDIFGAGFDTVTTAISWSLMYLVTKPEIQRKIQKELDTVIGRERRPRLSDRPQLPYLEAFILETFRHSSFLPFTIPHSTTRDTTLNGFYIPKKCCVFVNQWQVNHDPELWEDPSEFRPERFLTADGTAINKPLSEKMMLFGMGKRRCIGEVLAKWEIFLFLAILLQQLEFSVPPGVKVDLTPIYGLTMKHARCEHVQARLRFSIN

CYP2B6 [16] = target: T3, CYP2B6 (Homo sapiens, UniProt P20813); assay: in vitro; details: microsomes, pH 7.4
T3 sequence (P20813 whole entry): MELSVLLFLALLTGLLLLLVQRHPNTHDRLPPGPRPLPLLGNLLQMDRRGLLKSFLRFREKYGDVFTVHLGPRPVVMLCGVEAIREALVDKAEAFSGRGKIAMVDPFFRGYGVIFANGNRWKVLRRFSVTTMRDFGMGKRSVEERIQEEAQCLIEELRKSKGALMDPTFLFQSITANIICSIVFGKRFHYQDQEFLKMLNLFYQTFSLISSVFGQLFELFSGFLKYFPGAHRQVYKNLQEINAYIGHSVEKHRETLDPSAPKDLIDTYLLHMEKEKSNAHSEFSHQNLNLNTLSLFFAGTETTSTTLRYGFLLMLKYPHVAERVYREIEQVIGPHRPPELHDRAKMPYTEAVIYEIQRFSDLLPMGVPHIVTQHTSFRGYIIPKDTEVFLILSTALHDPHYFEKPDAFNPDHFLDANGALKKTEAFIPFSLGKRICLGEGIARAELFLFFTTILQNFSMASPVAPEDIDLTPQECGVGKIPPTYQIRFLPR

CYP2C9 [17] = target: T4, CYP2C9 (Homo sapiens, UniProt P11712); assay: in vitro; details: microsomes, pH 7.4
T4 sequence (P11712 whole entry): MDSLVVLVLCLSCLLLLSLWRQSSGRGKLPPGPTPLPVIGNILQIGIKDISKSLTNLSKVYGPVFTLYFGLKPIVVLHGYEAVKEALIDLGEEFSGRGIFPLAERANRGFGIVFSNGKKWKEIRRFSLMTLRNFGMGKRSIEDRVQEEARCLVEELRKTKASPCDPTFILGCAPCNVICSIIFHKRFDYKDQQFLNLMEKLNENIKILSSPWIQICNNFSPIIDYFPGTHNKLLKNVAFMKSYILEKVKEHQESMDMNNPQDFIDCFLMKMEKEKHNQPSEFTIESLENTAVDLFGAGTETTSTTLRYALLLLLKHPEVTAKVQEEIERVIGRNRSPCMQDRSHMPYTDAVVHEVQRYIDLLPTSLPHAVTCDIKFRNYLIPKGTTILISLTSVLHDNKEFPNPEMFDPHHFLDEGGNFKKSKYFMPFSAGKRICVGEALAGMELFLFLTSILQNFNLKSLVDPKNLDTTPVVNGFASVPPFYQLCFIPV

CYP2D6 = CYP2D6 (Homo sapiens, UniProt P10635); assay: in vitro; details: microsomes, pH 7.4
CYP2D6, sequence (P10635 whole entry): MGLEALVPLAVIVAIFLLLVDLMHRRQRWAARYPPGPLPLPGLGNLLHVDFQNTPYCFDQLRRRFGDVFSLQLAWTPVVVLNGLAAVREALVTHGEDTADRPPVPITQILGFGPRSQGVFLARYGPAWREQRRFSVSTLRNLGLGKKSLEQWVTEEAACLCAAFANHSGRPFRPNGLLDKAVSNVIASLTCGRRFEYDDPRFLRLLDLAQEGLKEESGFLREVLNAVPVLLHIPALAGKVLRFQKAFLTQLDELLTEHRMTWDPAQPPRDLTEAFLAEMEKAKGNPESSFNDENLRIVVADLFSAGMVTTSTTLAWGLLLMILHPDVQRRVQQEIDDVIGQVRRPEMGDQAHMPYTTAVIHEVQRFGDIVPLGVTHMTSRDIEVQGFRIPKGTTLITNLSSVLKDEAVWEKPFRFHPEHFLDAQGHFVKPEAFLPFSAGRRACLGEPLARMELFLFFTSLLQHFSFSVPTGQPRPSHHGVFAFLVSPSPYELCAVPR

CYP3A [18] = target: T1, CYP3A; assay: in vitro; details: microsomes
CYP1A2 [19] = target: T2, CYP1A2; assay: biochemical
CYP2B6 [20] = target: T3, CYP2B6; assay: biochemical
CYP2C9 [21] = target: T4, CYP2C9; assay: biochemical
[22] = female, Sprague Dawley, iv, 5 mg/kg

O=C(O)c1cc(-c2ccc(/C=C3\SC(=S)N(CCc4ccccc4)C3=O)o2)ccc1Cl [NBCoV1]
IC50 [1]: 0.0323 ± 0.0046 µM
IC50 [2]: 0.039 ± 0.0082 µM
IC50 [3]: 0.098 ± 0.004 µM
IC50 [4]: 0.095 ± 0.022 µM
IC50 [5]: 0.0765 ± 0.0003 µM
IC50 [6]: 1.397 ± 0.012 µM
IC100 (range of IC100 values detected in the three cell lines) [7]: 0.25 to 1 µM
IC50 ([7]; read-out: IC50 (range over the three cell lines)): 0.0323 to 0.0634 µM
kd [8]: 0.0257 s⁻¹
IC50 [9]: > 2 µM
IC50 (β-lactamase): > 2 µM
IC50 (Trypsin): > 2 µM
IC50 [10]: > 2 µM
IC50 (pseudovirus SARS-CoV-2; 293T/ACE2): 0.05 µM
IC50 (pseudovirus SARS-CoV-2; read-out: IC50): 0.045 µM
Caco-2 permeability (mean Papp) A-to-B (Caco-2 cells; 5 µM): 20.5 ×10⁻⁶ cm/s
Caco-2 permeability (mean Papp) B-to-A (Caco-2 cells; 5 µM): 23.6 ×10⁻⁶ cm/s
P-gp Substrate classification (Caco-2 cells; Caco-2): Negative
% of Control Enzyme Activity (CYP3A [11]; 0.0137 μM): 96.6%
% of Control Enzyme Activity (CYP3A [11]; 0.0412 μM): 97.0%
% of Control Enzyme Activity (CYP3A [11]; 0.123 μM): 94.8%
% of Control Enzyme Activity (CYP3A [11]; 0.370 μM, 0.37 µM): 96.3%
% of Control Enzyme Activity (CYP3A [11]; 1.11 μM): 94.6%
% of Control Enzyme Activity (CYP3A [11]; 3.33 μM): 82.2%
% of Control Enzyme Activity (CYP3A [11]; 10 μM): 59.9%
F% (bioavailability) ([12]; female, Sprague Dawley): 20.1%
CLobs [12, 22]: 0.00013 (mg/kg)/(ng/mL)/h
Vss_obs [12, 22]: 0.00053 (mg/kg)/(ng/mL)
AUC0-t ([12]; iv, 5 mg/kg): 37,515.91 ng/mL ∗ h
AUC0-t ([12]; po, 10 mg/kg): 12,023.00 ng/mL ∗ h
Vz/F_obs ([12]; po, 10 mg/kg): 0.01078 (mg/kg)/(ng/mL)
Papp A→B (P-gp; Caco-2, pH 7.4, Caco-2 permeability (mean Papp) A-to-B, 5 µM): 16.9 ×10⁻⁶ cm/s
Papp B→A (P-gp; Caco-2, pH 7.4, Caco-2 permeability (mean Papp) B-to-A, 5 µM): 20.4 ×10⁻⁶ cm/s
Papp A→B (P-gp; Caco-2, pH 7.4, Papp A-to-B, single replicates (R1, R2)): 20.4 ×10⁻⁶ cm/s
Papp B→A (P-gp; Caco-2, pH 7.4, Papp B-to-A, single replicates (R1, R2)): 20.9 ×10⁻⁶ cm/s
half-life (in vitro [13]): 1.87 h
microsomal CLint (in vitro [13]): 12.4 µL/min/mg
remaining at 0.25 h (in vitro [13]): 101%
remaining at 0.5 h (in vitro [13]): 80.5%
remaining at 1 h (in vitro [13]): 68.9%
remaining at 1.5 h (in vitro [13]): 69.5%
remaining at 2 h (in vitro [13]): 41.6%
fraction unbound (in vitro [14]): < 0.005
fraction unbound (in vitro [14]; % Bound, single replicates (R1, R2)): < 0.005
activity at 0.0137 µM (CYP1A2 [15]): 99.2%
activity at 0.0412 µM (CYP1A2 [15]): 96.7%
activity at 0.123 µM (CYP1A2 [15]): 93.8%
activity at 0.37 µM (CYP1A2 [15]): 92.2%
activity at 1.11 µM (CYP1A2 [15]): 89.8%
activity at 3.33 µM (CYP1A2 [15]): 69.5%
activity at 10 µM (CYP1A2 [15]): 41.3%
activity at 0.0137 µM (CYP2B6 [16]): 97.5%
activity at 0.0412 µM (CYP2B6 [16]): 98.1%
activity at 0.123 µM (CYP2B6 [16]): 90.4%
activity at 0.37 µM (CYP2B6 [16]): 94.2%
activity at 1.11 µM (CYP2B6 [16]): 76.9%
activity at 3.33 µM (CYP2B6 [16]): 47%
activity at 10 µM (CYP2B6 [16]): 15.2%
activity at 0.0137 µM (CYP2C9 [17]): 99.4%
activity at 0.0412 µM (CYP2C9 [17]): 98.2%
activity at 0.123 µM (CYP2C9 [17]): 97.2%
activity at 0.37 µM (CYP2C9 [17]): 95.1%
activity at 1.11 µM (CYP2C9 [17]): 85.1%
activity at 3.33 µM (CYP2C9 [17]): 59.9%
activity at 10 µM (CYP2C9 [17]): 29.8%
IC50 (CYP2D6): > 10 µM
activity at 0.0137 µM (CYP2D6): 95.8%
activity at 0.0412 µM (CYP2D6): 98.7%
activity at 0.123 µM (CYP2D6): 98.6%
activity at 0.37 µM (CYP2D6): 101%
activity at 1.11 µM (CYP2D6): 97%
activity at 3.33 µM (CYP2D6): 84.3%
activity at 10 µM (CYP2D6): 59.2%
IC50 (CYP3A [18]; pH 7.4): > 10 µM
activity at 0.0137 µM (CYP3A [18]; pH 7.4, % of Control Enzyme Activity, 0.0137 μM, n=1): 96.7%
activity at 0.0412 µM (CYP3A [18]; pH 7.4, % of Control Enzyme Activity, 0.0412 μM, n=1): 97%
activity at 0.123 µM (CYP3A [18]; pH 7.4, % of Control Enzyme Activity, 0.123 μM, n=1): 94.5%
activity at 0.37 µM (CYP3A [18]; pH 7.4, % of Control Enzyme Activity, 0.370 μM, n=1): 95.1%
activity at 1.11 µM (CYP3A [18]; pH 7.4, % of Control Enzyme Activity, 1.11 μM, n=1): 95.9%
activity at 3.33 µM (CYP3A [18]; pH 7.4, % of Control Enzyme Activity, 3.33 μM, n=1): 88.2%
activity at 10 µM (CYP3A [18]; pH 7.4, % of Control Enzyme Activity, 10 μM, n=1): 61.6%
IC50 (CYP1A2 [19]): 7.4 µM
IC50 (CYP2B6 [20]): 3.19 µM
IC50 (CYP2C9 [21]): 5.01 µM
